Reference: patent US20220348563A1, “KDM INHIBITORS AND USES THEREOF” (DANA-FARBER CANCER INSTITUTE, INC., priority 2019, published 2022)
Each block holds one molecule with its values, some of them ahead of it.

How the values were obtained:
KDM3A = biological target: T1, KDM3A (Homo sapiens, UniProt Q9Y4C1); test: KDM3 AlphaScreen assay (Table 2, ASSAY 9); assay type: biochemical; conditions: for IC50: ASSAY 9
T1 sequence (Q9Y4C1 1-1321): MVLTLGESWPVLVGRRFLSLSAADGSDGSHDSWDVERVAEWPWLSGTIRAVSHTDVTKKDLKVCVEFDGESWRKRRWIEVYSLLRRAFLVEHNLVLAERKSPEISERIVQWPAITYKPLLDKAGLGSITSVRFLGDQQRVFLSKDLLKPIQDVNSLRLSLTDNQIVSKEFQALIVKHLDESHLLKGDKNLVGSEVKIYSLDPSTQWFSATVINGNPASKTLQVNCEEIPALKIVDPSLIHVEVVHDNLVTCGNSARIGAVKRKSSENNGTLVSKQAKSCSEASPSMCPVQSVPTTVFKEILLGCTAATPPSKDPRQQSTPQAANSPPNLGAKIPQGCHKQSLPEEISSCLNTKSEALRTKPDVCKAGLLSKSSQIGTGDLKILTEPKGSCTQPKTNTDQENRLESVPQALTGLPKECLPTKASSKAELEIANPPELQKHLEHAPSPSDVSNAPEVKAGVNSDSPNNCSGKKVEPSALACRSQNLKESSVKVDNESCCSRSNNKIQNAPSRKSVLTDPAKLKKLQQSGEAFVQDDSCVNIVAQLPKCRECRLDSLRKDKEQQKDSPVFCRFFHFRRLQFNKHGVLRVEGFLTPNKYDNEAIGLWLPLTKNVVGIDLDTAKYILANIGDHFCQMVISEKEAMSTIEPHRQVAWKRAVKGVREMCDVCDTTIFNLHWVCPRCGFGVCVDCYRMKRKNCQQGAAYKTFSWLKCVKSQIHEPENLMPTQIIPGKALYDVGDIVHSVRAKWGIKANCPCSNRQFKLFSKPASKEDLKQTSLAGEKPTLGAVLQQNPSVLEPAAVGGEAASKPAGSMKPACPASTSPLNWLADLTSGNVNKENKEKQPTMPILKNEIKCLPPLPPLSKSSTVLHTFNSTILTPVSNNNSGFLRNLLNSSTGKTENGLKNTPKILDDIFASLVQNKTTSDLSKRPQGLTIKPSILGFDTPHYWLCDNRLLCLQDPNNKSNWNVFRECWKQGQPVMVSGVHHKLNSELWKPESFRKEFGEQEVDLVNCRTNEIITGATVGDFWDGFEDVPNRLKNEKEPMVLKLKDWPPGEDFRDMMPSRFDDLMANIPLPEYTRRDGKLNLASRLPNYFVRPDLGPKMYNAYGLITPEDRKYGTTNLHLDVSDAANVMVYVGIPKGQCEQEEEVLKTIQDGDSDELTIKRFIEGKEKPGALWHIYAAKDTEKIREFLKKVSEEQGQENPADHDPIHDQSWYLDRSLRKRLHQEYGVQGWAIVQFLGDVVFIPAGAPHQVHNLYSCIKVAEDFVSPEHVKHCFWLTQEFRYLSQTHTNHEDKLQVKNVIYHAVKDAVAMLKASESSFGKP
Method: (§1) AlphaScreen assays were performed in 384-well plate format using white AlphaPlate™ (PerkinElmer®, USA), and transfer of pre-diluted compound (100 nL) was performed using a Janus® Workstation (PerkinElmer®, USA). All subsequent steps were carried out in assay buffer (50 mM 4-(2-hydroxyethyl)-1-piperazineethanesulfonic acid (HEPES), pH 7.5, 0.1% (wt/vol) bovine serum albumin (BSA) and 0.01% (vol/vol) Tween®20). In brief, 10 μL of assay buffer containing demethylase enzyme (2 nM Final) was pre-incubated for 15 min with dilutions of compound. The enzyme reaction was initiated by the addition of substrate (5 μL) consisting of L-ascorbic acid (100 μM Final), […] (OG) (5 μM Final), FAS (10 μM Final) and histone H3(1-21)K9Me3-GGK Biotin (100 nM Final). The enzyme reaction was allowed to proceed for 30 minutes and was stopped by the addition of 5 μL of assay buffer containing ethylenediaminetetraacetic acid (EDTA) (40 mM) and NaCl (1,200 mM). The final concentration of DMSO was 1%. Streptavidin donor beads (0.08 mg/ml) and protein-A-conjugated acceptor beads (0.08 mg/ml) were preincubated for 1 h with antibody to methyl mark (300 ng/mL Final), and the presence of histone H3 product methyl mark was detected using the preincubated AlphaScreen™ beads (5 μL). Detection was allowed to proceed for 2 h at room temperature, and the assay plates were read on the EnVision® 2104 plate reader. Data were normalized to the (no-enzyme) control, and the IC50 values were determined via nonlinear regression curve fit using GraphPad Prism 7.

KDM3B = KDM3B (Homo sapiens, UniProt Q7LBC6); test: KDM3B AlphaScreen assay (Table 1); assay type: biochemical
Method: as §1, with “Detection was allowed to proceed for 2 h at room temperature, and the assay plates were read on the EnVision® 2104 plate reader.” left out
Data are expressed as IC50 (μM).

Chain of KDM3B (Q7LBC6 whole entry, species assumed): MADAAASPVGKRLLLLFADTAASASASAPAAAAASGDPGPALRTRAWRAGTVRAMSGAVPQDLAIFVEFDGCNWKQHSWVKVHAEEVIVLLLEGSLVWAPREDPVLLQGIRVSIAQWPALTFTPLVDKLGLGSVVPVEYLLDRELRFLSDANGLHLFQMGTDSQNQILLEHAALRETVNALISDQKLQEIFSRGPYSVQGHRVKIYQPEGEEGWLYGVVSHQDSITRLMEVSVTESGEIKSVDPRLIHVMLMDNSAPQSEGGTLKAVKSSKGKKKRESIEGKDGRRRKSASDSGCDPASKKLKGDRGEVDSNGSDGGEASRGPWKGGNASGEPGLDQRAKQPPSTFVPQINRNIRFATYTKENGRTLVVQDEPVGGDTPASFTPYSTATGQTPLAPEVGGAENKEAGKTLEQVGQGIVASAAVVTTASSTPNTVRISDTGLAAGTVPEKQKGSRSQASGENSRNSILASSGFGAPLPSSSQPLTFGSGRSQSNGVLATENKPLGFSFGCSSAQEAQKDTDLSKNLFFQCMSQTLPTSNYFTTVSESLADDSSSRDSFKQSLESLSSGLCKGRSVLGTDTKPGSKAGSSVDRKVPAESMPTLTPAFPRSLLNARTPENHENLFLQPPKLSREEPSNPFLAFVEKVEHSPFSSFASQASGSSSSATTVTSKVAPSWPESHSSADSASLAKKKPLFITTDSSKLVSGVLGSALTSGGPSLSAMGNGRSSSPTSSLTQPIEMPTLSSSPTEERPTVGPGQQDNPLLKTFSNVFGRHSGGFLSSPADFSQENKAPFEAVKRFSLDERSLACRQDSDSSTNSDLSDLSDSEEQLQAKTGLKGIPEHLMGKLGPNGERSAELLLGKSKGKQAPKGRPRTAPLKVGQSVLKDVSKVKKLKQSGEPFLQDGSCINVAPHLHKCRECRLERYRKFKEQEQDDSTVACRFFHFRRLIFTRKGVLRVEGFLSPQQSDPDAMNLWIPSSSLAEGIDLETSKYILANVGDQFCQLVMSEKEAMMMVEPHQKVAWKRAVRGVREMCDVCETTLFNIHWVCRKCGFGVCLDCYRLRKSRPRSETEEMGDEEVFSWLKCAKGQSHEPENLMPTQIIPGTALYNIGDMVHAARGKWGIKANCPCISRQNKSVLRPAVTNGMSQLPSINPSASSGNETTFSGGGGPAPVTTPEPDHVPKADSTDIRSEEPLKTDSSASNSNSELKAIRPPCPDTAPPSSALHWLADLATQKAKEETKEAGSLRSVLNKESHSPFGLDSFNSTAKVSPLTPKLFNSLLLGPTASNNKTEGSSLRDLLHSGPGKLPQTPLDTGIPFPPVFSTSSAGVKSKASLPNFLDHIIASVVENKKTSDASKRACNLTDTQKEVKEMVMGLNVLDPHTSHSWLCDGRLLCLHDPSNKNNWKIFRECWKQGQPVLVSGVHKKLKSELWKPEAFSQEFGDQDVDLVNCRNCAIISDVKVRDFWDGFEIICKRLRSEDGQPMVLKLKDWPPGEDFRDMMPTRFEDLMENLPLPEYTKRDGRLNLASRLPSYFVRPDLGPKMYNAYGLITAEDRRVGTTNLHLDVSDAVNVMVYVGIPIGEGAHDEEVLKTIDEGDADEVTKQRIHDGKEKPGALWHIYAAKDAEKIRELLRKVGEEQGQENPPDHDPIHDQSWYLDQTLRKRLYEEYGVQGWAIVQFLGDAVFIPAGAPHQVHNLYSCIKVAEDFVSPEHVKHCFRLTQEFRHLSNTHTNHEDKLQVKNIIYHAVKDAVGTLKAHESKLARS

SMILES: CN(C)c1ccc(CNc2ccc(F)cc2C(=O)N2CCN(Cc3ccc(N(C)C)cc3)CC2)cc1 [Compound 5, (2-((4-(dimethylamino)benzyl)amino)-5-fluorophenyl)(4-(4-(dimethylamino)benzyl)piperazin-1-yl)methanone]
KDM3A inhibition, verdict in words on Table 2 (KDM3A): potent KDM3A inhibitors
IC50 (KDM3A): 7.65 µM

SMILES: CN(C)c1ccc(-c2ccc(OC3CCN(C(=O)c4cn(S(=O)(=O)c5ccccc5)c5ccccc45)CC3)nc2)cc1 [Compound 11]
KDM3A inhibition, verdict in words on Table 2 (KDM3A): potent KDM3A inhibitors
IC50 (KDM3A): 33.6 µM

SMILES: CN(C)c1ccc(CCC(=O)Nc2ccc(F)cc2C(=O)N2CCC(Oc3ccc(-c4ccc(N(C)C)cc4)cn3)CC2)cc1 [KDM3-23, 3-(4-(dimethylamino)phenyl)-N-(2-(4-((5-(4-(dimethylamino)phenyl)pyridin-2-yl)oxy)piperidine-1-carbonyl)-4-fluorophenyl)propanamide]
KDM3B inhibition, verdict in words on Table 1 (KDM3B): potent KDM3B inhibitors
IC50 (KDM3B; ASSAY 5): 4.78 µM

SMILES: CN(C)c1ccc(CCC(=O)Nc2ccc(F)cc2C(=O)N2CCC(Oc3ccc(-c4ccc(CN5CCOCC5)cc4)cn3)CC2)cc1 [KDM3-24]
IC50 (KDM3B; ASSAY 5): 10.9 µM

SMILES: CN(C)c1ccc(CCC(=O)Nc2ccc(F)cc2C(=O)N2CCC(Oc3cc(N4CCOCC4)ccn3)CC2)cc1 [KDM3-26, 3-(4-(dimethylamino)phenyl)-N-(4-fluoro-2-(4-((4-morpholinopyridin-2-yl)oxy)piperidine-1-carbonyl)phenyl)propanamide]
IC50 (KDM3B; ASSAY 6): 74.3 µM

SMILES: CN(C)c1ccc(CCC(=O)Nc2ccc(F)cc2C(=O)N2CCC(Oc3cc(N4CCCCC4)ccn3)CC2)cc1 [KDM3-27, 3-(4-(dimethylamino)phenyl)-N-(4-fluoro-2-(4-((4-(piperidin-1-yl)pyridin-2-yl)oxy)piperidine-1-carbonyl)phenyl)propanamide]
IC50 (KDM3B; ASSAY 6): 11.3 µM

SMILES: CCOC(=O)c1ccc(N)c(C(=O)N2CCC(Oc3cc(-c4ccc(N(C)C)cc4)ccn3)CC2)c1 [KDM3-31, ethyl 4-amino-3-(4-((4-(4-(dimethylamino)phenyl)pyridin-2-yl)oxy)piperidine-1-carbonyl)benzoate]
IC50 (KDM3B; ASSAY 6): 9.43 µM
IC50 (KDM3B; ASSAY 7): 8.26 µM
IC50 (KDM3B; ASSAY 8): 10.8 µM

SMILES: CN(C)c1ccc(CCNC(=O)/C=C\C(=O)N2CCC(Oc3ccc(-c4ccc(N(C)C)cc4)cn3)CC2)cc1 [KDM3-38, (Z)-N-(4-(dimethylamino)phenethyl)-4-(4-((5-(4-(dimethylamino)phenyl)pyridin-2-yl)oxy)piperidin-1-yl)-4-oxobut-2-enamide]
IC50 (KDM3B; ASSAY 7): 5.65 µM

SMILES: CN(C)c1ccc(-c2ccc(OC3CCN(C(=O)c4ccccc4[N+](=O)[O-])CC3)nc2)cc1 [KDM3-39, (4-((5-(4-(dimethylamino)phenyl)pyridin-2-yl)oxy)piperidin-1-yl)(2-nitrophenyl)methanone]
IC50 (KDM3B; ASSAY 7): 10.9 µM
IC50 (KDM3B; ASSAY 8): 19.2 µM

SMILES: CC(=O)Nc1ccc(C(=O)N2CCC(Oc3ccc(-c4ccc(N(C)C)cc4)cn3)CC2)c(N)c1 [KDM3-40, N-(3-amino-4-(4-((5-(4-(dimethylamino)phenyl)pyridin-2-yl)oxy)piperidine-1-carbonyl)phenyl)acetamide]
IC50 (KDM3B; ASSAY 8): 22.4 µM

SMILES: CN(C)c1ccc(-c2ccc(OC3CCN(C(=O)c4cc(C(=O)O)ccc4N)CC3)nc2)cc1 [KDM3-41, 4-amino-3-(4-((5-(4-(dimethylamino)phenyl)pyridin-2-yl)oxy)piperidine-1-carbonyl)benzoic acid]
IC50 (KDM3B; ASSAY 8): 49.4 µM

SMILES: CN(C)c1ccc(-c2ccc(OC3CN(C(=O)c4ccccc4[N+](=O)[O-])C3)nc2)cc1 [KDM3-42, (3-((5-(4-(dimethylamino)phenyl)pyridin-2-yl)oxy)azetidin-1-yl)(2-nitrophenyl)methanone]
IC50 (KDM3B; ASSAY 8): 11.8 µM

SMILES: CN(C)c1ccc(-c2ccnc(OC3CCN(C(=O)c4cc(C(=O)O)ccc4N)CC3)c2)cc1 [KDM3-43, 4-amino-3-(4-((4-(4-(dimethylamino)phenyl)pyridin-2-yl)oxy)piperidine-1-carbonyl)benzoic acid]
IC50 (KDM3B; ASSAY 8): 61 µM

SMILES: CN(C)c1ccc(CNC(=O)/C=C\C(=O)N2CCC(Oc3ccc(-c4ccc(N(C)C)cc4)cn3)CC2)cc1 [KDM3-47, (Z)-N-(4-(dimethylamino)benzyl)-4-(4-((5-(4-(dimethylamino)phenyl)pyridin-2-yl)oxy)piperidin-1-yl)-4-oxobut-2-enamide]
IC50 (KDM3A): 13 µM

SMILES: CN(C)c1ccc(CCC(=O)Nc2cc(F)ccc2C(=O)N2CCC(Oc3ccc(-c4ccc(N(C)C)cc4)cn3)CC2)cc1 [KDM3-51, 3-(4-(dimethylamino)phenyl)-N-(2-(4-((5-(4-(dimethylamino)phenyl)pyridin-2-yl)oxy)piperidine-1-carbonyl)-5-fluorophenyl)propanamide]
IC50 (KDM3A): 14 µM

Further lines, results first:

IC50 (KDM3B; ASSAY 1): 27.9 µM
SMILES: CN(C)c1ccc(CCNC(=O)CCC(=O)N2CCC(Oc3ccc(C(F)(F)F)cn3)CC2)cc1 [JADA69, N-(4-(dimethylamino)phenethyl)-4-oxo-4-(4-((5-(trifluoromethyl)pyridin-2-yl)oxy)piperidin-1-yl)butanamide]

IC50 (KDM3B; ASSAY 1): 53 µM
SMILES: CN(C)c1ccc(CCNC(=O)CCC(=O)N2CCC(Oc3cc(-c4ccc(N(C)C)cc4)ccn3)CC2)cc1 [JADA84, N-(4-(dimethylamino)phenethyl)-4-(4-((4-(4-(dimethylamino)phenyl)pyridin-2-yl)oxy)piperidin-1-yl)-4-oxobutanamide]

IC50 (KDM3B; ASSAY 1): 8.78 µM
IC50 (KDM3B; ASSAY 2): 13.7 µM
IC50 (KDM3B; ASSAY 7): 9.79 µM
SMILES: CN(C)c1ccc(CCNC(=O)CCC(=O)N2CCC(Oc3ccc(-c4ccc(N(C)C)cc4)cn3)CC2)cc1 [JADA92, N-(4-(dimethylamino)phenethyl)-4-(4-((5-(4-(dimethylamino)phenyl)pyridin-2-yl)oxy)piperidin-1-yl)-4-oxobutanamide]

IC50 (KDM3B; ASSAY 3): 18.6 µM
SMILES: CN(C)c1ccc(CCCNC(=O)c2ccccc2C(=O)N2CCC(Oc3ccc(Br)cn3)CC2)cc1 [JADA133]

IC50 (KDM3A): 16 µM
SMILES: CN(C)c1ccc(-c2ccc(OC3CCN(C(=O)c4ccccc4OC(=O)c4ccccc4O)CC3)nc2)cc1 [JADA196, 2-(4-((5-(4-(dimethylamino)phenyl)pyridin-2-yl)oxy)piperidine-1-carbonyl)phenyl 2-hydroxybenzoate]
